Results on one compound are retold here after patent US9560989B2, “Method for determining the metabolic capacity of at least one enzyme” (HUMEDICS GMBH, priority 2011, dated 2017).

Structures are written as SMILES.

Data set [1] deals with T1, CYP450 1A2 (Homo sapiens, UniProt P05177).
T1 sequence (P05177 1-516): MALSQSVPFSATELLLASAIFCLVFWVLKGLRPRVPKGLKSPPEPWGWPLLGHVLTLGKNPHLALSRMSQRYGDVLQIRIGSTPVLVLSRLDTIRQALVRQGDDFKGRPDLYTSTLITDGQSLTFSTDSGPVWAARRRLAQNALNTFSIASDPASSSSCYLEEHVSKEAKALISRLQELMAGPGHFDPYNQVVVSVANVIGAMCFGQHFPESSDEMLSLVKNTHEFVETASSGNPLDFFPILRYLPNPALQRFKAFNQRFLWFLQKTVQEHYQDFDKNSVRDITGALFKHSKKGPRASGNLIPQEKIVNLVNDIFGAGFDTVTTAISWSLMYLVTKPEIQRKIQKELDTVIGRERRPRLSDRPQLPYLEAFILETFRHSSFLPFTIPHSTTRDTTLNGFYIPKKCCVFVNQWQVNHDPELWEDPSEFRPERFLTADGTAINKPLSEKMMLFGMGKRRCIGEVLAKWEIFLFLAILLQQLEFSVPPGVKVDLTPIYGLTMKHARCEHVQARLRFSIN
The note with it: in vivo.
Procedure: As substrate, ^13C-labeled methacetin at a dose of 2 mg per kilogram bodyweight of the individual was administered to the individual, wherein the release period was shorter than 60 seconds. In the body of the individual the ^13C-labeled methacetin was metabolized in the liver to paracetamol and ^13C-labeled CO2. The latter was detected as product in the air exhaled by the individual.
1 DOB here refers to a change of the ^13CO2-to-^12CO2-ratio by a thousandth above the natural ratio. The obtained measured values, illustrated in FIG. 1, are subsequently fitted with a suitable model function. […] From this model function—with a function equation familiar as such—different parameters can now be derived which specify the function. […]
As methacetin is almost solely metabolized in the liver, with the specified metabolism dynamics it is possible to directly and immediately trace the metabolism of the administered substrate by the enzymes existing in the liver. […] Here, for instance the value of the maximum product concentration in the exhaled air Pmax allows a statement to be made about the number of the healthy liver cells and the liver volume which is thus available for metabolism; whereas the rise in the form of the time constant(s) of the model function, fitted to the measured values, allows statements to be made about the entrance velocity of the substrate into the liver cells. […]

The target in data set [2] is T1, CYP450 1A2. The data set can be described thus: metabolic power of the liver determined by methacetin metabolism at different dosages. On the set-up: metabolized to ^13CO2 and paracetamol in the liver cells by the enzyme CYP450 1A2; from tissue; host or cells: liver of the living individual (in vivo). As to conditions: FIG. 2. Format: in vivo. How it is done:
The metabolic power was determined according to the formulae indicated above for different methacetin metabolisms observed after methacetin administration in different dosages. Specifically, 1 mg ^13C-labeled methacetin per kg bodyweight, 2 mg/kg, 4 mg/kg and 8 mg/kg were administered.
This non-linearity is expressed by the function L(n/M), wherein n denotes the number of substrate molecules, i.e. methacetin molecules, and M denotes the bodyweight in kg. This function L(n/M) forms part of the fitting curve represented in FIG. 2 by the interpolation curve between the single measurement points.

As for `COc1ccc(NC(C)=O)cc1` [13C-labeled methacetin], the “time point of half-maximum methacetine metabolism (t1/2)” value on CYP450 1A2 [1] was about 1.5 min. Moreover, at CYP450 1A2 [1], the “time point of maximum methacetine metabolism (tmax)” value is about 6.5 min. In addition, the “dependence of the measured signals on dosage” value on CYP450 1A2 [2] (1 mg per kg body weight) and on CYP450 1A2 [2] (2 mg/kg) was “linear dependence” in each case. Also, the “deviation from the linear behaviour” value at CYP450 1A2 [2] (4 mg/kg) is recorded as 10%; at CYP450 1A2 [2] (8 mg/kg) it was “more than 20%”.
